According to article PMC6979384, “Characterization of the plant homeodomain (PHD) reader family for their histone tail interactions” (Epigenetics & Chromatin, 2020):

Tests used:
Assay in all cases: Histone peptide microarray
Format in all cases: binding, human
[1] = tested on: KDM4C (TTP); details: GST-tagged KDM4C (TTP = Tandem Tudor domain + PHD); histone peptide array; arrays performed twice, n of 4
Method in brief: (§1)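 Steps: express and purify GST-tagged PHD reader; incubate 0.5 μM protein on a peptide microarray (293 histone peptides, single or combined PTMs) following an optimized protocol; average signal across 4 replicates.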

[2] = tested on: PHRF1 (RP); details: GST-tagged PHRF1 (RP); histone peptide array; arrays performed twice, n of 4
Method in brief: as §1

[3] = tested on: CHD5 (PPCC); details: GST-tagged CHD5 (PPCC = Dual PHD + Dual Chromodomain); histone peptide array; arrays performed twice, n of 4
Method in brief: as §1

[4] = tested on: ING1; details: GST-tagged ING1; histone peptide array; arrays performed twice, n of 4
Method in brief: as §1

[5] = tested on: KDM5B (3); details: GST-tagged KDM5B (3); histone peptide array; arrays performed twice, n of 4
Method in brief: as §1

[6] = tested on: SP140L; details: GST-tagged SP140L; histone peptide array; arrays performed twice, n of 4
Method in brief: as §1

[7] = tested on: ING2; details: GST-tagged ING2; histone peptide array; arrays performed twice, n of 4
Method in brief: as §1

[8] = tested on: ING5; details: GST-tagged ING5; histone peptide array; arrays performed twice, n of 4
Method in brief: as §1

[9] = tested on: PHF23; details: GST-tagged PHF23; histone peptide array; arrays performed twice, n of 4
Method in brief: as §1

[10] = tested on: CHD4 (PPCC); details: GST-tagged CHD4 (PPCC = Dual PHD + Dual Chromodomain); histone peptide array; arrays performed twice, n of 4
Method in brief: as §1

[11] = tested on: KDM5A (1); details: GST-tagged KDM5A (1); histone peptide array; arrays performed twice, n of 4
Method in brief: as §1

[12] = tested on: CHD5 (PCC); details: GST-tagged CHD5 (PCC = PHD + Dual Chromodomain); histone peptide array; arrays performed twice, n of 4
Method in brief: as §1

[13] = tested on: TRIM66 (PB); details: GST-tagged TRIM66 (PB = PHD + Bromodomain); histone peptide array; arrays performed twice, n of 4
Method in brief: as §1

[14] = tested on: PHF13; details: GST-tagged PHF13; histone peptide array; arrays performed twice, n of 4
Method in brief: as §1

[15] = tested on: KDM5A (3); details: GST-tagged KDM5A (3); histone peptide array; arrays performed twice, n of 4
Method in brief: as §1

[16] = tested on: MORC3 (CW); details: GST-tagged MORC3 (CW = CW-type Zn-finger); histone peptide array; arrays performed twice, n of 4
Method in brief: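 Each reader, produced as a GST fusion and purified, was tested at 0.5 μM on synthetic histone peptides (293 in total) carrying single or combinatorial marks. Intensities averaged over four replicates.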

[17] = tested on: AIRE (PP); details: GST-tagged AIRE (PP); histone peptide array; arrays performed twice, n of 4
Method in brief: as §1

[18] = tested on: BAZ2B; details: GST-tagged BAZ2B; histone peptide array; arrays performed twice, n of 4
Method in brief: as §1

[19] = tested on: DPF2 (PPC2W2); details: GST-tagged DPF2 (PPC2W2 = Dual PHD + C2W2-type Zn-finger); histone peptide array; arrays performed twice, n of 4
Method in brief: as §1

[20] = tested on: PHF21A; details: GST-tagged PHF21A; histone peptide array; arrays performed twice, n of 4
Method in brief: as §1

[21] = tested on: TAF3; details: GST-tagged TAF3; histone peptide array; arrays performed twice, n of 4
Method in brief: as §1

[22] = tested on: ING4; details: GST-tagged ING4; histone peptide array; arrays performed twice, n of 4
Method in brief: as §1

[23] = tested on: KDM5B (1); details: GST-tagged KDM5B (1); histone peptide array; arrays performed twice, n of 4
Method in brief: as §1

[24] = tested on: BPTF (PB); details: GST-tagged BPTF (PB = PHD + Bromodomain); histone peptide array; arrays performed twice, n of 4
Method in brief: as §1

[25] = tested on: MLL5; details: GST-tagged MLL5; histone peptide array; arrays performed twice, n of 4
Method in brief: as §1

[26] = tested on: DIDO1; details: GST-tagged DIDO1; histone peptide array; arrays performed twice, n of 4
Method in brief: as §1

[27] = tested on: PHF2; details: GST-tagged PHF2; histone peptide array; arrays performed twice, n of 4
Method in brief: as §1

[28] = tested on: RAG2; details: GST-tagged RAG2; histone peptide array; arrays performed twice, n of 4
Method in brief: as §1

[29] = tested on: PHF8; details: GST-tagged PHF8; histone peptide array; arrays performed twice, n of 4
Method in brief: as §1

[30] = tested on: KDM7A; details: GST-tagged KDM7A; histone peptide array; arrays performed twice, n of 4
Method in brief: as §1

[31] = tested on: ING3; details: GST-tagged ING3; histone peptide array; arrays performed twice, n of 4
Method in brief: as §1

Row | Substance | Array Heatmap signal, KDM4C (TTP) [1] | Array Heatmap signal, PHRF1 (RP) [2] | Array Heatmap signal, CHD5 (PPCC) [3] | Array Heatmap signal, ING1 [4] | Array Heatmap signal, KDM5B (3) [5] | Array Heatmap signal, SP140L [6] | Array Heatmap signal, ING2 [7] | Array Heatmap signal, ING5 [8] | Array Heatmap signal, PHF23 [9] | Array Heatmap signal, CHD4 (PPCC) [10] | Array Heatmap signal, KDM5A (1) [11] | Array Heatmap signal, CHD5 (PCC) [12] | Array Heatmap signal, TRIM66 (PB) [13] | Array Heatmap signal, PHF13 [14] | Array Heatmap signal, KDM5A (3) [15] | Array Heatmap signal, MORC3 (CW) [16] | Array Heatmap signal, AIRE (PP) [17] | Array Heatmap signal, BAZ2B [18] | Array Heatmap signal, DPF2 (PPC2W2) [19] | Array Heatmap signal, PHF21A [20] | also measured
1 | H4R3me2a: H4 1-23 [Peptide H4R3me2a] | 0.5587 | 0.4379 | 0.5601 | 0.5321 | 0.6206 | 0.3676 | 0.6586 | 0.4061 | 0.5402 | 0.544 | 0.4898 | 0.8242 | 0.665 | 0.6445 | 0.5304 | 0.3932 | 0.5327 | 0.5399 | 0.6681 | 0.4696 | Array Heatmap signal, TAF3 [21]: 0.3922; Array Heatmap signal, ING4 [22]: 0.4842; Array Heatmap signal, KDM5B (1) [23]: 0.6754; Array Heatmap signal, BPTF (PB) [24]: 0.3886; Array Heatmap signal, MLL5 [25]: 0.6462; Array Heatmap signal, DIDO1 [26]: 0.7103; Array Heatmap signal, PHF2 [27]: 0.4976; Array Heatmap signal, RAG2 [28]: 0.3803; Array Heatmap signal, PHF8 [29]: 0.391; Array Heatmap signal, KDM7A [30]: 0.5968; Array Heatmap signal, ING3 [31]: 0.4883
2 | H4R3me2s + K5ac + K8ac + K12ac + K16ac + K20ac: H4 1-23 | 0.4958 | 0.4884 | 0.5595 | 0.5887 | 0.4887 | 0.3449 | 0.6618 | 0.3711 | 0.5758 | 0.5891 | 0.4598 | 0.7755 | 0.6231 | 0.6071 | 0.5291 | 0.4281 | 0.4445 | 0.4891 | 0.6954 | 0.4472 | Array Heatmap signal, TAF3 [21]: 0.282; Array Heatmap signal, ING4 [22]: 0.4768; Array Heatmap signal, KDM5B (1) [23]: 0.6719; Array Heatmap signal, BPTF (PB) [24]: 0.483; Array Heatmap signal, MLL5 [25]: 0.5888; Array Heatmap signal, DIDO1 [26]: 0.8519; Array Heatmap signal, PHF2 [27]: 0.6188; Array Heatmap signal, RAG2 [28]: 0.3093; Array Heatmap signal, PHF8 [29]: 0.384; Array Heatmap signal, KDM7A [30]: 0.3478; Array Heatmap signal, ING3 [31]: 0.4923
